Measured values from patent publication US20140328795A1, “VIRUCIDAL SMALL MOLECULE AND USES THEREOF” (The Texas A&M University System, priority 2012, published 2014).
Read-outs that look alike come from different tables or passages of the source.

How the values were obtained:
SIV = SIV infectivity assay in TZM-bl cells (β-galactosidase); assay type: cell-based; conditions: Simian immunodeficiency virus; for IC90: IC90 per footnote, read-out: IC50 (the source's name)
[1] = system: HepG2, HCT-8, Huh-7, Huh-7.5, TZM, PC3 and 293T cells; assay type: cell-based, human
Lactobacillus crispatus = assay: Lactobacillus toxicity testing (CFU); assay type: cell-based; conditions: 37° C.
Experimental: (§1) Reference strains of L. crispatus and L. jensenii were obtained from the ATCC (Manassas, Va.) and cultured on Columbia blood agar plates at 35° C. in air enriched with 6% CO2. Bacterial suspensions were prepared in saline or ACES buffer to a density of 2 McFarland units (˜2×10^8 bacteria/mL), and exposed to PD (300 μM) or DMSO (10%) for 30 minutes at 37° C. After incubation, the cells were serially diluted in ACES buffer, pH 7.0 (Sigma-Aldrich, St. Louis, Mo.) and plated on blood agar plates to quantify colony forming unit per mL (CFU/mL)
(§2) Different bacterial strains were incubated with 300 μM PD or solvent DMSO-containing control media at 37° C. for 30 min and plated on blood agar plates to estimate their corresponding colony forming units per ml (CFU/ml). Less than 1 log difference between control and test CFU is considered non-toxic17.

Lactobacillus jensenii = assay: Lactobacillus toxicity testing (CFU); assay type: cell-based; conditions: 37° C.
Experimental: as §1, §2

HIV-2 = HIV-2 infectivity assay in TZM-bl cells (β-galactosidase); assay type: cell-based; conditions: Human immunodeficiency virus 2, TZM-bl, PD in DMEM with 10% fetal bovine serum, IC90 per footnote, read-out: IC50 (the source's name)
Sindbis virus (SINV) = assay type: cell-based
Dengue virus (DenV) = assay: Dengue virus plaque assay on Vero cells; assay type: cell-based, Serotype 2 New Guinea C strain Dengue virus; conditions: 300 μM PD
HCVcc = assay type: cell-based, HCV
HSV-1 virions = conditions: 0.2 μM PD, 30 min, 37° C.; 20-70% sucrose gradient
Experimental: FIGS. 16A-16B depict effectiveness of PD against HSV. PD blocks HSV infection. Vero cells were seeded in a 24-well plate and infected with HSV-1 (Syn 17) or HSV-2 (333) (FIG. 16A). PD (200 nM) or control DMSO (0.01%) was added immediately to the target cells after viral inoculation. Two days later, the cells were harvested, stained with antibody against HSV glycoprotein gD and analyzed by flow cytometry. Error bars represent standard deviation of triplicate samples. Results are representative of two independent experiments. PD Destabilizes HSV particles (FIG. 16B). […] The amount of HSV glycoprotein gpB in each fraction was analyzed by ELISA. The sucrose gradient density of each fraction was determined by measuring the refractive index. […]
HSV was concentrated by loading 30 mL HSV-1-infected Vero cell supernatant on a 20% sucrose cushion and centrifuged in a SW28 rotor at 20,000 rpm for 1 h at 4° C. […] After ultracentrifugation at 30,000 rpm for 24 h in a SW-41 T rotor at 4° C., fractions of 1 mL were collected and analyzed for HSV gpB content by enzyme-linked immunosorbent assay (ELISA) using homemade rabbit polyclonal antibody. The density of each fraction from the sucrose gradient was determined by measuring the refractive index.
Applicants also investigated whether PD can disrupt the structure of HSV virions. […] Each gradient fraction was analyzed for HSV glycoprotein gpB by ELISA. […]

[2] = SIVsyk1.2, PD in DMEM with 10% fetal bovine serum

## N=C1Sc2ccccc2C2=NCCCN12 [PD, PD 404,182]
SIV; SIVmoc251 32H, PD in DMEM with 10% fetal bovine serum
  IC90: 6.2 µM
SIV; [2]
  IC50: 1.8 µM
  IC90: 5.4 µM
[1]; cervical cancer cells
  CC50: > 300 µM
[1]; seven different human cell lines, including TZM-bl (HeLa)
  CC50: > 300 µM
Lactobacillus crispatus; Lactobacillus crispatus ATCC 33197, 30 min
  CFU of Lactobacillus treated with 300 μM PD: 7,260,000 CFU/ml
Lactobacillus crispatus; Lactobacillus crispatus ATCC 33197, 300 μM PD, 30 min
  Log(Control)-Log(PD): −0.019
Lactobacillus jensenii; Lactobacillus jensenii ATCC 25258, 30 min
  CFU of Lactobacillus treated with 300 μM PD: 7,533,333 CFU/ml
Lactobacillus jensenii; Lactobacillus jensenii LBP 28Ab, 30 min
  CFU of Lactobacillus treated with 300 μM PD: 10,033,333 CFU/ml
Lactobacillus jensenii; Lactobacillus jensenii LBP 28Ab, 300 μM PD, 30 min
  Log(Control)-Log(PD): −0.021
HIV-2; HIV-2OD 0310342
  IC90: 4.7 µM
HIV-2; HIV-27312A
  IC90: 6.6 µM
Sindbis virus (SINV)
  effect on infectivity of SINV: no significant inhibitory effect
Dengue virus (DenV)
  effect on infectivity of DenV: no significant inhibitory effect
HCVcc
  inhibition of virus infectivity: > 10 fold
HSV-1 virions
  sedimentation of HSV gpB in sucrose gradient: all gpB distributed to the top of the gradient
